Measurements taken from US20260198493A1, “HYDRAZIDE COMPOUND AND AGRICULTURAL/HORTICULTURAL FUNGICIDE” (Nippon Soda Co., Ltd., priority 2022, published 2026).

Legend:
[1] = test system: Botrytis cinerea; format: cell-based; settings: 120 h, 25 ppm by volume, Vogel medium, 20° C., five days, dark, read-out: growth inhibition ratio
[2] = test system: Venturia inaequalis; experiment: Control test of apple scab disease (sprayed young apple seedlings); format: in vivo; settings: 125 ppm by mass spray, 12 to 14 days after inoculation
Description: [formula] […] Then, the drug liquid was sprayed onto young apple seedlings cultivated in a nursery pot (variety “Orin”, three-to four-leaf stage), and then air-dried. Thereafter, conidiospores of fungi causing apple scab disease (Venturia inaequalis) were inoculated thereon (treated area). As a control, the conidiospores were inoculated in a similar manner to the above on young apple seedlings unsprayed with the drug liquid (untreated area). They were left still at 20° C. in a moist room with light and dark cycles repeated every 12 hours. 12 Days to 14 days after inoculation, leaves of young apple seedlings were visually observed, and the control value was calculated from the lesion area ratio in accordance with the equation used in the control test of cucumber gray mold.

[3] = test system: Erysiphe graminis f.sp.tritici; experiment: Control test of wheat powdery mildew disease (sprayed young wheat seedlings); format: in vivo; settings: Blumeria graminis, 144 h, 125 ppm by mass spray, six days after inoculation
Source text: [formula] […] Then, the drug liquid was sprayed onto young wheat seedlings cultivated in a nursery pot (variety “Chihoku”, one-to two-leaf stage), and then air-dried. Thereafter, conidiospores of fungi causing wheat powdery mildew disease (Erysiphe graminis f.sp.tritici) were sprinkled on the young wheat seedlings to inoculate them (treated area). As a control, the conidiospores of fungi causing wheat powdery mildew disease (Erysiphe graminis f.sp.tritici) were sprinkled on young wheat seedlings unsprayed with the drug liquid (untreated area). They were left still in a greenhouse at 20° C. Six days after inoculation, leaves of young wheat seedlings were visually observed, and the lesion area ratio was determined to calculate the control value in a similar manner to the previous test.

[4] = test system: Colletotrichum acutatum; experiment: Fungicidal effect test against fungi causing apple anthracnose; settings: 96 h, read-out: growth inhibition ratio
[5] = test system: Glomerella cingulata; experiment: Fungicidal effect test against fungi causing grape ripe rot disease; settings: Colletotrichum gloeosporioides, 72 h, read-out: growth inhibition ratio
[6] = test system: Botrytis cinerea; experiment: Control test of cucumber gray mold (sprayed young cucumber seedlings); format: in vivo; settings: 96 h, four days after inoculation; for pest or weed control at 125 ppm: 125 ppm by mass spray; for pest or weed control at 25 ppm: 25 ppm by mass spray
Description: Then, the drug liquid was sprayed onto young cucumber seedlings cultivated in a nursery pot (variety “Jihai”-based, cotyledon stage), and then air-dried. […] They were left still in a moist room at 20° C. Four days after inoculation, leaves of the young cucumber seedlings were visually observed, and the control value was calculated from the lesion area ratio in accordance with the following equation. [formula]

COC(=O)N(Cc1ccc2c(c1)OCO2)NC(=O)c1cc(C)nnc1Oc1cccc(C2CC2)c1F [b-110]
≥ 75%: inhibition of growth at 25 ppm [1] | pest or weed control at 125 ppm [2] | pest or weed control at 125 ppm [3] | inhibition of growth at 25 ppm [4] | inhibition of growth at 25 ppm [5]

COC(=O)N(Cc1ccc(C)cc1C)NC(=O)c1cc(C)nnc1Oc1cncc(Br)c1 [b-96]
≥ 75%: inhibition of growth at 25 ppm [1] | pest or weed control at 125 ppm [6] | pest or weed control at 125 ppm [2] | pest or weed control at 125 ppm [3] | inhibition of growth at 25 ppm [4] | inhibition of growth at 25 ppm [5]

COC(=O)N(Cc1ccc(-n2cccn2)cc1)NC(=O)c1cc(C)nnc1Oc1cccc(C2CC2)c1F [b-172]
≥ 75%: inhibition of growth at 25 ppm [1] | pest or weed control at 125 ppm [2] | inhibition of growth at 25 ppm [4] | inhibition of growth at 25 ppm [5]

COC(=O)N(Cc1ccc(OC)cc1OC)NC(=O)c1nc(C)ncc1Oc1cccc(C2CC2)c1F [b-86]
≥ 75%: inhibition of growth at 25 ppm [1] | pest or weed control at 25 ppm [6] | pest or weed control at 125 ppm [6] | pest or weed control at 125 ppm [2] | pest or weed control at 125 ppm [3] | inhibition of growth at 25 ppm [5]

COC(=O)N(Cc1ccc(C)cc1C)NC(=O)c1cc(-n2cccn2)ncc1Oc1cccc(C2CC2)c1F [b-186]
≥ 75%: inhibition of growth at 25 ppm [1] | pest or weed control at 25 ppm [6] | pest or weed control at 125 ppm [6] | pest or weed control at 125 ppm [2] | inhibition of growth at 25 ppm [4] | inhibition of growth at 25 ppm [5]

COC(=O)N(Cc1ccc(C)cc1C)NC(=O)c1cc(C)nnc1Oc1cccc(F)c1Cl [b-180]
≥ 75%: inhibition of growth at 25 ppm [1] | pest or weed control at 125 ppm [2] | pest or weed control at 125 ppm [3]

CSC(=S)N(Cc1ccc(C)cc1C)NC(=O)c1cc(C)nnc1Oc1cccc(C2CC2)c1F [b-174]
≥ 75%: pest or weed control at 125 ppm [2] | inhibition of growth at 25 ppm [4] | inhibition of growth at 25 ppm [5]

COC(=O)N(CCc1ccc(Cl)cc1Cl)NC(=O)c1cc(C)nnc1Oc1cccc(C2CC2)c1F [b-65]
≥ 75%: pest or weed control at 125 ppm [2] | pest or weed control at 125 ppm [3] | inhibition of growth at 25 ppm [4] | inhibition of growth at 25 ppm [5]

COC(=O)N(Cc1ccc(OC)cc1C)NC(=O)c1cc(C)ncc1Oc1cccc(C2CC2)c1F [b-104]
≥ 75%: inhibition of growth at 25 ppm [1] | pest or weed control at 25 ppm [6] | pest or weed control at 125 ppm [6] | pest or weed control at 125 ppm [2] | pest or weed control at 125 ppm [3] | inhibition of growth at 25 ppm [4]

COC(=O)N(Cc1ccc(C)cc1C)NC(=O)c1cc(C)nnc1Oc1cc(C)cc(F)c1 [b-144]
≥ 75%: inhibition of growth at 25 ppm [1] | pest or weed control at 125 ppm [2] | inhibition of growth at 25 ppm [4] | inhibition of growth at 25 ppm [5]

Cc1ccc(CN(NC(=O)c2cc(C)nnc2Oc2cccc(C3CC3)c2F)S(C)(=O)=O)c(C)c1 [b-26, N′-(3-(3-cyclopropyl-2-fluorophenoxy)-6-methylpyridazine-4-carbonyl)-N-(2,4-dimethylbenzyl)methanesulfonohydrazide]
≥ 75%: inhibition of growth at 25 ppm [1] | pest or weed control at 125 ppm [2] | inhibition of growth at 25 ppm [4] | inhibition of growth at 25 ppm [5]

COC(=O)N(Cc1ccc2ccccc2c1)NC(=O)c1cc(C)nnc1Oc1cccc(C2CC2)c1F [b-71]
≥ 75%: inhibition of growth at 25 ppm [1] | pest or weed control at 125 ppm [2] | inhibition of growth at 25 ppm [4] | inhibition of growth at 25 ppm [5]

COC(=O)N(Cc1ccc(-c2ccc(F)cc2)cc1)NC(=O)c1cc(C)nnc1Oc1cccc(C2CC2)c1F [b-164]
≥ 75%: inhibition of growth at 25 ppm [1] | pest or weed control at 125 ppm [2] | inhibition of growth at 25 ppm [4] | inhibition of growth at 25 ppm [5]

COC(=O)N(Cc1ccc(OC)cc1)NC(=O)c1cc(C)nnc1Oc1cccc(C2CC2)c1F [b-100]
≥ 75%: inhibition of growth at 25 ppm [1] | pest or weed control at 125 ppm [2] | pest or weed control at 125 ppm [3] | inhibition of growth at 25 ppm [4] | inhibition of growth at 25 ppm [5]

CCc1cccc(Oc2nnc(C)cc2C(=O)NN(Cc2ccc(C)cc2C)C(=O)OC)c1 [b-50]
≥ 75%: inhibition of growth at 25 ppm [1] | pest or weed control at 125 ppm [6] | pest or weed control at 125 ppm [3] | inhibition of growth at 25 ppm [4] | inhibition of growth at 25 ppm [5]

COC(=O)N(Cc1ccc(OC)cc1OC)NC(=O)c1cc(C)ncc1Oc1cccc(C2CC2)c1F [b-85]
≥ 75%: inhibition of growth at 25 ppm [1] | pest or weed control at 25 ppm [6] | pest or weed control at 125 ppm [6] | pest or weed control at 125 ppm [2] | pest or weed control at 125 ppm [3] | inhibition of growth at 25 ppm [5]

COC(=O)N(Cc1ccc2ncsc2c1)NC(=O)c1cc(C)nnc1Oc1cccc(C2CC2)c1F [b-173]
≥ 75%: pest or weed control at 125 ppm [2] | inhibition of growth at 25 ppm [4] | inhibition of growth at 25 ppm [5]

COC(=O)N(Cc1ccc(C)cc1C)NC(=O)c1cc(C)nnc1Oc1cccc(Cl)c1Br [b-35]
≥ 75%: inhibition of growth at 25 ppm [1] | pest or weed control at 125 ppm [2]

CC(=O)N(Cc1ccc(Cl)cc1Cl)NC(=O)c1cc(C)nnc1Oc1cccc(C2CC2)c1F [b-13]
≥ 75%: inhibition of growth at 25 ppm [1] | pest or weed control at 125 ppm [6] | pest or weed control at 125 ppm [3] | inhibition of growth at 25 ppm [4] | inhibition of growth at 25 ppm [5]

COC(=O)N(Cc1ccc(C)cc1C)NC(=O)c1cc(C)nnc1Oc1cccc(OC)c1 [b-123]
≥ 75%: inhibition of growth at 25 ppm [1] | pest or weed control at 125 ppm [2] | pest or weed control at 125 ppm [3] | inhibition of growth at 25 ppm [4] | inhibition of growth at 25 ppm [5]

COC(=O)N(Cc1ccc(Oc2ccccc2)cc1)NC(=O)c1cc(C)nnc1Oc1cccc(C2CC2)c1F [b-165]
≥ 75%: inhibition of growth at 25 ppm [1] | pest or weed control at 125 ppm [2] | inhibition of growth at 25 ppm [4] | inhibition of growth at 25 ppm [5]

CC(=O)C(=O)N(Cc1ccc(C)cc1C)NC(=O)c1cc(C)nnc1Oc1cccc(C2CC2)c1F [b-58, 3-(3-Cyclopropyl-2-fluorophenoxy)-N′-(2,4-dimethylbenzyl)-6-methyl-N′-(2-oxopropanoyl)pyridazine-4-carbohydrazide]
≥ 75%: inhibition of growth at 25 ppm [1] | pest or weed control at 125 ppm [6] | pest or weed control at 125 ppm [3] | inhibition of growth at 25 ppm [4] | inhibition of growth at 25 ppm [5]

COC(=O)N(Cc1ccccc1)NC(=O)c1cc(C)nnc1Oc1cccc(C2CC2)c1F [b-102]
≥ 75%: inhibition of growth at 25 ppm [1] | pest or weed control at 125 ppm [2] | pest or weed control at 125 ppm [3] | inhibition of growth at 25 ppm [4] | inhibition of growth at 25 ppm [5]

COC(=O)N(Cc1ccc(C)cc1C)NC(=O)c1cc(C)nnc1Oc1ccc(C)c(Br)c1 [b-62]
≥ 75%: inhibition of growth at 25 ppm [1] | pest or weed control at 125 ppm [3] | inhibition of growth at 25 ppm [4] | inhibition of growth at 25 ppm [5]

COC(=O)N(Cc1ccc(C)cc1C)NC(=O)c1cc(Cl)nnc1Oc1ccc2c(c1)CCC2 [b-79]
≥ 75%: inhibition of growth at 25 ppm [1] | pest or weed control at 125 ppm [6] | pest or weed control at 125 ppm [2] | inhibition of growth at 25 ppm [4] | inhibition of growth at 25 ppm [5]

COC(=O)N(Cc1ccc(C)cc1C)NC(=O)c1cc(C)nnc1Oc1cccc(C#N)c1F [b-69]
≥ 75%: inhibition of growth at 25 ppm [1] | pest or weed control at 125 ppm [3] | inhibition of growth at 25 ppm [4] | inhibition of growth at 25 ppm [5]

Cc1ccc(CN(NC(=O)c2cc(C)nnc2Oc2cccc(C3CC3)c2F)C(=O)C2COC2)c(C)c1 [b-40]
≥ 75%: inhibition of growth at 25 ppm [1] | pest or weed control at 125 ppm [3] | inhibition of growth at 25 ppm [4] | inhibition of growth at 25 ppm [5]
